Assay [1] deals with mouse breast cancer cell line 4T1 subcutaneously implanted model. The assay is described as follows: Influence on tumor immunity in model subcutaneously implanted with mouse breast cancer cell 4T1. The assay is classed as in vivo, BALB/cAJcl mouse. Conditions: Day 15.
Experimental: Mouse breast cancer cell line 4T1 was subcutaneously implanted in a 6-week-old male BALB/cAJcl mouse. […] On the day following the final administration (Day 15), lymphocyte fractions were isolated from the tumor, spleen, and peripheral blood, and myeloid-derived suppressor cells (MDSCs) (CD11b^+/Gr−1^+ cells), CD4-positive T cells, and CD8-positive T cells were measured using a cell sorter.
The test system of the next assay is urothelial cancer. Conditions: cited from earlier work.
[2] abbreviates: 15 and 30 mg/kg/day oral, daily for 14 days, compared with control.

Regarding `C=CC(=O)N1CC[C@H](n2nc(C#Cc3cc(OC)cc(OC)c3)c3c(N)ncnc32)C1` [compound 1, (S)-1-(3-(4-amino-3-((3,5-dimethoxyphenyl)ethynyl)-1H-pyrazolo[3,4-d]pyrimidin-1-yl)pyrrolidin-1-yl)prop-2-en-1-one], in assay [1] (setting [2]), the “CD4-positive T cells in the peripheral blood lymphocyte fractions” value is recorded as “tended to increase in a dose-dependent manner”, the “CD8-positive T cells in the peripheral blood lymphocyte fractions” value was “tended to increase in a dose-dependent manner”, the “CD8-positive T cells in the spleen lymphocyte fractions” value is reported as “tended to increase in a dose-dependent manner” and the “MDSCs in the peripheral blood lymphocyte fractions” value is “tended to decrease in a dose-dependent manner”. Also, the “MDSCs (CD11b+/Gr-1+ cells) in the spleen lymphocyte fractions” value in assay [1] (any dose (15 or 30 mg/kg/day oral, daily for 14 days), compared with non-drug administration control, Student's t-test P<0.01) is recorded as “significant reduction”.

B1: vofatamab: an anti-FGFR3 antibody (antibody, chains of the INN, looked up, V domains shown)
VH: EVQLVESGGGLVQPGGSLRLSCAASGFTFTSTGISWVRQAPGKGLEWVGRIYPTSGSTNYADSVKGRFTISADTSKNTAYLQMNSLRAEDTAVYYCARTYGIYDLYVDYTEYVMDYWGQGTLVTVSS
VL: DIQMTQSPSSLSASVGDRVTITCRASQDVDTSLAWYKQKPGKAPKLLIYSASFLYSGVPSRFSGSGSGTDFTLTISSLQPEDFATYYCQQSTGHPQTFGQGTKVEIK
B1: the “response in patients without FGFR genetic aberration” value with urothelial cancer (combined use with pembrolizumab) is “response by combined use with pembrolizumab is observed”. Further, the “sensitivity state of the cancer to immune checkpoint inhibitors” value in the assay on urothelial cancer (urothelial cancer patients, vofatamab administration) was “change from a “cold” state (low sensitivity to immune checkpoint inhibitors) to a “hot” state (high sensitivity to immune checkpoint inhibitors)”.
